Patent publication US11926604B2, “Myelination stimulator compounds, and methods of treatment” (priority 2018, dated 2024)

Assays:
[1] = diazoxide, basis for dose choice; cited from earlier work
model of PWMI = conditions: neonatal therapy; cited from earlier work
C57BL/6 mice [2] = conditions: cited from earlier work
mice [3] = assay: Single-dose dose-range and toxicity study in mice; format: in vivo
Experimental: (§1) Dose-range and toxicity studies in mice. In consultation with UF veterinary staff and the IACUC committee, toxicity studies were performed. […] Compounds were dissolved in 100% DMSO and diluted with 0.9% NaCl before injecting. The IP route (100-500 ul) was used to treat 8-10 week old female adults. We used females because in some studies they are more sensitive to toxins. Experiments were performed with the 2 compounds that had the largest effect on myelination in the brain slice cultures, including K261-0298 and K261-0310. Mice were treated with a single dose.

[4] = format: physicochemical
Experimental: as §1

mouse pups = assay: Ten-day treatment of mouse pups from P2, safety and pulmonary hypertension; format: in vivo
Experimental: In addition, we also treated mouse pups starting on day P2 for ten days with 100 mg/kg/day K261-0298 or vehicle. […] We also evaluated for possible pulmonary hypertension.

[5] = Toxicokinetic sample collection, HPLC compound levels; format: in vivo, mouse; conditions: single i.p. injection of 100 mg/kg, mice
Experimental: Toxicokinetic Sample Collection: After the above studies, compound kinetics were examined. Male and female mice at approximately 60 days of age were used (n=8 mice per sex). […] Samples were collected prior to dose and at 30 minutes, 2, 4, 8 and 24 hours after. Compound levels were determined by High Pressure Liquid Chromatography (HPLC) at UF.

mice [6] = assay: Multiday toxicity study, 10 days; format: in vivo, mouse; conditions: 100 mg/kg for 10 days
C57BL/6 mice [7] = assay: Myelination in newborn mice in normoxia; format: in vivo, mouse
From the text: FIG. 3. depicts results of studies of myelination in newborn mice in normoxia. FIG. 3. Myelin basic protein (MBP), O4 and O1 labeling of coronal forebrain at level of corpus callosum (cc) of newborn mice treated with vehicle or drug (K261-298) from P2 to P12 in room air. Data shown are representative of at least 5 pups per treatment group. cc, corpus callosum. Scale bar=100 um.
After adult studies, pups were studied at developmental stages equivalent to preterm infants to assess effects on myelination, as reported by us^54. C57BL/6 mice were reared in room air from P2 to P12, and treated daily with the compound or vehicle. […] K261-0298 (100 mg/kg) was given by injection, as above.

hypoxia-exposed mouse = assay: Chronic sublethal hypoxia model of PWMI, ventriculomegaly; format: in vivo; set-up: ventricle size: unit not given here
From the text: FIG. 4. Depicts results of studies of myelination in an animal model of white matter injury. […] Dark-field, hemi-coronal sections at the same brain levels shown. Data shown are representative of 4 pups per treatment group. Arrow depict lateral ventricles. ac, anterior commisure. Note smaller ventricle size in the drug-treated pup. Scale bar=500 um.
We have initiated preclinical testing using the chronic sublethal hypoxia model of PWMI. Mice were reared under hypoxic or normoxic conditions from P2 to P12, as reported 64. At P2, litters were placed in a Plexiglas chamber in which ambient O2 levels are maintained at 10.0±0.3% O2. Normoxic animals were exposed to room air. To date we tested K261-0298 at 100 mg/kg, and mice were treated once per day from P2 to P12. At the end of the treatment period mice were examined for ventriculomegaly, as reported^64,65. […] Compared with normoxic controls^64,66, ventricle sizes in the drug-treated hypoxia animals were similar.

mouse brain slices = assay: Myelination in brain slices (MBP, O1 immunostaining); format: cell-based; conditions: brain slices incubated 5 days in culture, MBP labeling
Experimental: FIG. 2. depicts the effect of compounds on myelination stimulation. FIG. 2. A. Myelin basic protein labeling (green) of brain slices incubated with compounds for 5 days in culture. *, p<0.05 vs vehicle. ANOVA. Data shown are representative at least 3 slices per treatment group per study, in at least 3 separate studies. (B) Vehicle, (C) K-261-0298. Note increased labeling.
Before undertaking in vivo testing, we assessed the ability of the lead compounds to promote OL development and myelination using mouse brain slices, as reported^62,63. Each compound and concentration was tested in triplicate, in at least three separate studies. Slices were collected at 1, 5, 9, or 13 days in vitro, fixed in 4% paraformaldehyde, and used for immunohistochemical staining.

[8] = pups from P2, ten days, 100 mg/kg/day
[9] = 100 mg/kg daily P2 to P12, room air, n=6

Compound: CC1=NS(=O)(=O)c2cc(Cl)ccc2N1 [diazoxide]
- LD50 [1]: 265 to 392 mg/kg
- myelination (model of PWMI): markedly improves myelination
- neurocognitive function (model of PWMI): improves neurocognitive function
- ventriculomegaly (model of PWMI): reduces ventriculomegaly
- myelination in room air (earlier diazoxide studies) (C57BL/6 mice [2]): increased myelination

Compound: CC(=O)c1ccc(N2CCN(C(=O)CCC3=Nc4ccccc4S(=O)(=O)N3)CC2)cc1 [Compound K261-0310, 1-(4-(4-acetylphenyl)piperazin-1-yl)-3-(1,1-dioxido-2H-benzo[e][1,2,4]thiadiazin-3-yl)propan-1-one]
- adverse effects at behavioral or gross necropsy levels (mice [3]; mouse, in vivo, ip, 50 mg/kg): no adverse effects observed
- solubility behaviour in dosing solution [4]: precipitated out of solution at higher concentrations

Compound: CCOCCCNC(=O)CCC1=Nc2ccccc2S(=O)(=O)N1 [Compound K261-0298, 3-(1,1-dioxido-2H-benzo[e][1,2,4]thiadiazin-3-yl)-N-(3-ethoxypropyl)propanamide]
- behavior or weight gain versus vehicle (mouse pups; [8]): without any differences in behavior or weight gain
- survival (mouse pups; [8]): all survived to the end of treatment
- pulmonary hypertension (mouse pups; ten days of treatment in pups, juveniles, adults): does not appear that this compound induces pulmonary hypertension
- half-life ([5]; both sexes, mouse, in vivo, ip, read-out: circulating half-life (converted)): 2.2 h
- peak drug levels [5]: 21.5 ± 2.3 µM
- adverse effects on animal behavior or weight (mice [6]): no adverse effects on animal behavior or weight loss
- histopathological analysis of major organs (mice [6]): did not reveal evidence of damage in any major organs
- gross necropsy (mice [6]; 5 treated mice): no gross malformations were observed
- decrease in O4 labeling vs. vehicle (C57BL/6 mice [7]; [9]): 44+/−4%
- increase in MBP labeling vs. vehicle (C57BL/6 mice [7]; [9]): 27+/−4%
- increase in O1 labeling vs. vehicle (C57BL/6 mice [7]; [9]): 26+/−5%
- O1 labeling (FIG. 3) (C57BL/6 mice [7]; P2 to P12 in room air, p<0.02): increase in O1 labeling
- O4 expression (FIG. 3) (C57BL/6 mice [7]; P2 to P12 in room air, p<0.02): reduction in O4 expression
- bioavailability to the brain / blood-brain-barrier penetration (C57BL/6 mice [7]; inferred from changes in CNS myelination): suggests that there is bioavailability of the compound to the brain
- ventricle sizes compared with normoxic controls (hypoxia-exposed mouse; drug-treated hypoxia animals): similar
- ventricle size (hypoxia-exposed mouse; hypoxia, 100 mg/kg once per day P2 to P12, n=4): 0.0054+/−0.00013
- ventriculomegaly vs. vehicle (hypoxia-exposed mouse; hypoxia, 100 mg/kg once per day P2 to P12, p<0.03, 100 mg/kg): marked reduction in ventriculomegaly
- myelination in vitro (mouse brain slices): stimulates myelination in vitro
- tolerated single dose (mice [3]; IP, 8-10 week old female mice): up to 400 mg/kg
- solubility behaviour in dosing solution [4]: more favorable solubility properties
